Data reported in patent US20260265691A1, “METHODS TO IMPROVE THE PERSISTENCE OF DOUBLE NEGATIVE T CELLS” (priority 2022, published 2026).

What was measured:
[1] = autoimmune toxicities, infection, diarrhea, skin problems; cited from earlier work
[2] = test system: DNTs; assay: Memory status of ex vivo expanded DNTs (CD45RA, CD62L flow cytometry); type: cell-based, human; settings: end of expansion (day 17)
Source text: (FIG. 6A) Representative flow plots showing memory status. […] Tnaive/SCM=CD45RA^+CD62L^+; TCM=CD45RA^−CD62L^+; TEM=CD45RA^−CD62L; Teffector=CD45RA^+CD62L^−. (FIG. 6B) Frequency of DNTs in early memory subset TCM/SCM (CD45RA^+/CD62L^+ and CD45RA^−CD62L^+; left), TEM (CD45RA^−CD62L^−; middle) and TEFF (CD45RA^+CD62L^−; right) from day 7 to day 17 of ex vivo DNT expansion culture. […] Each dot represents DNTs from one donor. The cell number is normalized to day 0 DNT number. […] The expression shown is relative to the expression of housekeeping gene, HPRT. Each paired symbols represent DNTs from one donor. […] Expansion fold relative to the number of DNTs at the start of co-culture was determined after 2 days and 8 days (Left). Absolute number of viable DNTs from each treatment group after co-culture with OCI-AML3 (Right). […] (FIG. 6F) Memory status of DNTs 8 days post co-culture with OCI-AML3 determined by flow-cytometry. […]

[3] = test system: DNTs; assay: CD69 expression on ex vivo expanded DNTs; type: cell-based, human; settings: 0, 1 and 5 μM Ide; day 7, 10 and 17
Procedure: Frequency of CD69 expression from day 7, 10 and 17 ex vivo expanded DNTs in 0, 1 and 5 μM of de.

[4] = test system: DNTs; assay: Ex vivo DNT expansion in increasing concentrations of Ide; type: cell-based, human
Procedure: DNT was obtained and expanded as previously reported in the presence or absence of Ide (Selleckchem). Briefly, blood from healthy donor was collected in sodium heparin containing vacutainers (Becton, Dickinson and Company). Then, CD4^+ and CD8^+ T cells were depleted from healthy donor-derived PBMCs by incubating whole blood with RosetteSep human CD4 and CD8 depletion cocktail (StemCell Technologies) followed by density gradient centrifugation to collect CD4 and CD8 depleted buffy coats.

[5] = test system: DNTs; assay: DNT viability (Annexin V, 7-AAD flow cytometry); type: cell-based, human; settings: 5 healthy donors, day 17
Procedure: The result shown is a summary of three experiments. […] The cell viability was determined with Annexin V and 7-AAD staining using flow cytometry. […] Subsequently, the viability of DNTs (gated on CD45^high CD3^+CD33/CD34^−) were determined using flow cytometry. […] Each paired symbol represents DNTs from one donor.
and viability of effector cells was calculated by 100-% AnnexinV^+ in cultures of DNTs with AML.

[6] = test system: DNTs; assay: Exhaustion marker expression on DNTs (flow cytometry); type: cell-based, human
Source text: FIGS. 7A-7G. […] Representative flow plot is shown (Left). The numbers represent the MFI value (Right). […] Horizontal bars represent the mean relative MFI and error bars show SEM. (FIG. 7C) Expression of exhaustion associated transcription factor gene, TOX, relative to the expression of housekeeping gene, HPRT, determined by qPCR. Each paired symbol represents DNTs from one individual. […] Subsequently, cells were intracellularly stained with anti-TNFα and anti-IFNγ antibodies, and the expression levels were determined by flow cytometry. Representative flow plot is shown (Left). The numbers represent the frequency in each gate. […] The result shown is a summary of three experiments. (FIG. 7E) Frequency of viable ctrl-DNTs and Ide-DNTs on day 17 of expansion. The cell viability was determined with Annexin V and 7-AAD staining using flow cytometry. […] (FIG. 7F) Viability of ctrl-DNTs and Ide-DNTs after co-culture with primary AML cells from 7 different patients. […]
The following antibodies were used in this study: CD4-FITC or -APCcy7, CD56-PE, CD3-PEcy7 or -Alexa Flour700, CD8-APC or -APCcy7, CD45RA-FITC, CD95-APC, CD62L-PEcy7, CTLA4-PE, LAG3-PEcy7, TIM3-APC, CD45-FITC or -APCcy7, CD34-PE, CD33-APC, AnnexinV-Pacific Blue or -FITC, 7AAD, IFNy-PE, TNFα-APC and DAPI. […] Data were obtained using Attune NXT flow Cytometer (ThermoFisher) and analyzed with Flowjo software (Tree Star, Inc.).

[7] = test system: DNTs; assay: Effect of JQ1 on memory status of DNTs (flow cytometry of CD27, CD62L, CD45RA); type: cell-based, human; settings: JQ1 0.075, 0.15, 0.30 μM for 20 days; day 14, 17 and 20 of DNT expansion
Source text: JQ1 was given to the culture on day 0, 3, 7, 10, 14, and 17.

[8] = test system: conventional T cells; settings: Kagoya et al. 2016; cited from earlier work

SMILES	adverse events associated with Ide-treatment [1]	TCM/TSCM cell number, fold higher compared to ctrl-DNTs [2] [fold]	CD69 expression (DNT activation signal) [3]	DNT viability at the end of cell expansion cultures ([4]; 1 μM Ide)	cell yield at the end of expansion compared to vehicle control ([4]; 0.1-1.0 μM Ide)	DNT expansion ([4]; 3.0-10.0 μM of Ide)	viability of DNTs after expansion [5]	expression of inhibitory receptor Lag3 on DNTs compared to ctrl-DNTs [6]	expression of inhibitory receptor Tim3 on DNTs compared to ctrl-DNTs [6]	memory formation of DNTs across treatment groups [7]	inducing memory phenotype on conventional T cells [8]
CC[C@H](Nc1ncnc2[nH]cnc12)c1nc2cccc(F)c2c(=O)n1-c1ccccc1 [Ide, 5-fluoro-3-phenyl-2-[(1S)-1-(7H-purin-6-ylamino)propyl]quinazolin-4-one]	severe adverse events	3.87±0.82	reduced levels of CD69 expression in a dose-dependent manner	highest DNT viability	improved cell yield	compromised	significantly improved the viability	reduced the expression	reduced the expression	–	–
Cc1sc2c(c1C)C(c1ccc(Cl)cc1)=N[C@@H](CC(=O)OC(C)(C)C)c1nnc(C)n1-2 [JQ1]	–	–	–	–	–	–	–	–	–	no biologically meaningful differences	top hit amongst 31 chemicals tested
